Data published in ChEMBL document CHEMBL5107966, “Cascade synthetic strategies opening access to medicinal-relevant aliphatic 3- and 4-membered N-heterocyclic scaffolds” (Eur J Med Chem, 2022).
pEC50, pIC50: −log10 of the molar value. ≈ marks a conversion by molar mass, not a printed value.

Columns and labels:
Enterococcus faecium = assay: Antimicrobial activity against Enterococcus faecium incubated for 18 to 24 hrs; format: functional; conditions: time 18-24 hrs
Enterobacter cloacae = assay: Antimicrobial activity against Enterobacter cloacae incubated for 18 to 24 hrs; format: functional; conditions: time 18-24 hrs
Pseudomonas aeruginosa [1] = assay: Antimicrobial activity against Pseudomonas aeruginosa incubated for 18 to 24 hrs; format: functional; conditions: time 18-24 hrs
Staphylococcus aureus [2] = assay: Antimicrobial activity against Staphylococcus aureus incubated for 18 to 24 hrs; format: functional; conditions: time 18-24 hrs
RAW264.7 [3] = assay: Cytotoxicity against mouse RAW264.7 by WST-1 vital dye reagent method; format: functional, cell-based
RAW264.7 [4] = assay: Inhibition of NO release in mouse RAW264.7 incubated for 15 mins by fluoroscence-luminescence reader infinite M200 Pro analysis; format: functional, cell-based; conditions: RAW264.7, 0.25 h
A-431 = assay: Antiproliferative activity against human A-431 cells assessed as reduction in cell viability incubated for 72 hrs by CCK-8 assay; format: functional, cell-based; conditions: A-431, 72 h
HCT-116 [5] = assay: cells; conditions: Homo sapiens, HCT-116, 72 h
HepG2 = assay: Antiproliferative activity against human HepG2 cells assessed as reduction in cell viability incubated for 72 hrs by CCK-8 assay; format: functional, cell-based; conditions: HepG2, 72 h
U-251 = assay: Antiproliferative activity against human U-251 cells assessed as reduction in cell viability incubated for 72 hrs by CCK-8 assay; format: functional, cell-based; conditions: U-251, 72 h
HCT-116 [6] = assay: Cytotoxicity against human HCT-116 cells assessed as cell viability incubated for 24 hrs by MTT assay; format: functional, cell-based; conditions: HCT-116, 24 h
HCT-116 [7] = assay: Cytotoxicity against human HCT-116 cells; format: functional, cell-based
A2780 = assay: Cytotoxicity against human A2780 cells; format: functional, cell-based
A549 = assay: Cytotoxicity against human A549 cells
HeLa = assay: Cytotoxicity against human HeLa cells
Aspergillus fumigatus = assay: Antimicrobial activity against Aspergillus fumigatus NCIM 2081; format: functional
Aspergillus niger = assay: Antimicrobial activity against Aspergillus niger […]; format: functional
Escherichia coli = assay: Antimicrobial activity against Escherichia coli ATCC 8739; format: functional
Candida albicans = assay: Antimicrobial activity against Candida albicans NCIM 2087; format: functional
Pseudomonas aeruginosa [8] = assay: Antimicrobial activity against Pseudomonas aeruginosa MCCB 0035; format: functional
Staphylococcus aureus [9] = assay: Antimicrobial activity against Staphylococcus aureus ATCC 29213; format: functional

Q: Which MIC (Enterococcus faecium) does the source give for `O=C(O)C1N=C1c1ccccc1` (configuration not stated) here?
A: The MIC was 9 µg/mL (≈ 55.8 µM).

Q: What about the MIC (Enterobacter cloacae) of the same compound?
A: The MIC was 9 µg/mL (≈ 55.8 µM).

Q: And the MIC (Pseudomonas aeruginosa [1])?
A: Its MIC is 9 µg/mL (≈ 55.8 µM).

Q: And the MIC (Staphylococcus aureus [2])?
A: Its MIC is 9 µg/mL (≈ 55.8 µM).

Q: Which results are given for `O=C1[C@@H](Oc2ccc(Cl)cc2Cl)[C@@H](c2ccc([N+](=O)[O-])cc2)N1CCCN1CCOCC1`?
A: pIC50 (RAW264.7 [3]): 3.54; pIC50 (RAW264.7 [4]): 5.38

Q: How did the pEC50 (A-431) turn out when `COc1cc(-c2cc(C3CN(c4cccc(C#N)n4)C3)ccc2OC)ccn1` was run?
A: Its pEC50 is 6.15.

Q: And the pEC50 (HCT-116 [5])?
A: Its pEC50 is 4.83.

Q: And the pEC50 (HepG2)?
A: The pEC50 was 6.34.

Q: And the pEC50 (U-251)?
A: The pEC50 was 5.92.

Q: `CCOP(=O)(O)C1CN1C(C)c1ccc2ccccc2c1` (configuration not stated) was tested. Which pIC50 (HCT-116 [6]) did it give?
A: The pIC50 was 4.91.

Q: Which MIC (Enterococcus faecium) does the source give for `Cc1ccc(C(OC(=O)C2N=C2c2ccccc2Br)C(=O)NC(C)(C)C)cc1` (configuration not stated) here?
A: The MIC was 16 µg/mL (≈ 36.1 µM).

Q: What about the MIC (Enterobacter cloacae) of the same compound?
A: Its MIC is 75 µg/mL (≈ 169 µM).

Q: What about the MIC (Pseudomonas aeruginosa [1]) of the same compound?
A: The MIC was 150 µg/mL (≈ 338 µM).

Q: And the MIC (Staphylococcus aureus [2])?
A: The MIC was 16 µg/mL (≈ 36.1 µM).

Q: How did the pIC50 (HCT-116 [6]) turn out when `CCOP(=O)(O)C1CN1Cc1ccccc1` (configuration not stated) was run?
A: The pIC50 was 5.11.

Q: With `Nc1cccc([C@@H]2[C@H](Oc3ccc4ccccc4c3)C(=O)N2CCCN2CCOCC2)c1` as the compound, how does the pIC50 (RAW264.7 [3]) read?
A: Its pIC50 is under 3.30.

Q: What about the pIC50 (RAW264.7 [4]) of the same compound?
A: Its pIC50 is 5.24.

Q: With `CCOP(=O)(O)C1CN1C1CCCCC1` (configuration not stated) as the compound, how does the pIC50 (HCT-116 [6]) read?
A: The pIC50 was 4.79.

Q: What does the source list for `COc1ccc(C2CN(c3cccc(C#N)n3)C2)cc1-c1ccnc(N)c1`?
A: pEC50 (HCT-116 [5]): 6.44; pEC50 (HepG2): 5.25; pEC50 (U-251): 7.52

Q: Which results are given for `O=C1[C@@H](Oc2ccc(Cl)cc2)[C@@H](c2ccccc2[N+](=O)[O-])N1N1CCOCC1`?
A: pIC50 (RAW264.7 [3]): < 3.30; pIC50 (RAW264.7 [4]): 5.10

Q: How did the pIC50 (HCT-116 [7]) turn out when `COc1ccc(C2NC2c2cc(OC)c(OC)c(OC)c2)cc1` (configuration not stated) was run?
A: Its pIC50 is 5.26.

Q: What about the pIC50 (A2780) of the same compound?
A: Its pIC50 is 5.33.

Q: And the pIC50 (A549)?
A: Its pIC50 is 5.06.

Q: What about the pIC50 (HeLa) of the same compound?
A: The pIC50 was 5.31.

Q: For `Cc1ccc(S(=O)(=O)N2C(=O)C(Cl)[C@H]2c2ccc(F)cc2)cc1` (some centres not stated), which MIC (Aspergillus fumigatus) is on record?
A: Its MIC is 2 µg/mL (≈ 5.65 µM).

Q: And the MIC (Aspergillus niger)?
A: Its MIC is 8 µg/mL (≈ 22.6 µM).

Q: And the MIC (Escherichia coli)?
A: The MIC was 0.5 µg/mL (≈ 1.41 µM).

Q: What about the MIC (Candida albicans) of the same compound?
A: Its MIC is 2 µg/mL (≈ 5.65 µM).

Q: What about the MIC (Pseudomonas aeruginosa [8]) of the same compound?
A: The MIC was 4 µg/mL (≈ 11.3 µM).

Q: What about the MIC (Staphylococcus aureus [9]) of the same compound?
A: The MIC was 1 µg/mL (≈ 2.83 µM).

Q: Which results are given for `Cc1ccc(S(=O)(=O)N2C(=O)C(Cl)[C@H]2c2ccccc2F)cc1` (some centres not stated)?
A: MIC (Aspergillus fumigatus): 4 µg/mL (≈ 11.3 µM); MIC (Aspergillus niger): 16 µg/mL (≈ 45.2 µM); MIC (Escherichia coli): 4 µg/mL (≈ 11.3 µM); MIC (Candida albicans): 16 µg/mL (≈ 45.2 µM); MIC (Pseudomonas aeruginosa [8]): 32 µg/mL (≈ 90.4 µM); MIC (Staphylococcus aureus [9]): 4 µg/mL (≈ 11.3 µM)

Q: How did the MIC (Aspergillus fumigatus) turn out when `Cc1ccc(S(=O)(=O)N2C(=O)C(Cl)[C@H]2c2cccc(F)c2)cc1` (some centres not stated) was run?
A: The MIC was 16 µg/mL (≈ 45.2 µM).

Q: And the MIC (Aspergillus niger)?
A: Its MIC is 16 µg/mL (≈ 45.2 µM).

Q: And the MIC (Escherichia coli)?
A: Its MIC is 2 µg/mL (≈ 5.65 µM).

Q: What about the MIC (Candida albicans) of the same compound?
A: Its MIC is 8 µg/mL (≈ 22.6 µM).

Q: What about the MIC (Pseudomonas aeruginosa [8]) of the same compound?
A: Its MIC is 16 µg/mL (≈ 45.2 µM).

Q: What about the MIC (Staphylococcus aureus [9]) of the same compound?
A: Its MIC is 8 µg/mL (≈ 22.6 µM).

Q: `CC1(C)S[C@@H]2[C@H](NC(=O)[C@H](N)c3ccccc3)C(=O)N2[C@H]1C(=O)O` [AMPICILLIN] was tested. Which MIC (Escherichia coli) did it give?
A: Its MIC is 1 µg/mL (≈ 2.86 µM).

Q: What about the MIC (Pseudomonas aeruginosa [8]) of the same compound?
A: The MIC was 4 µg/mL (≈ 11.4 µM).

Q: And the MIC (Staphylococcus aureus [9])?
A: Its MIC is 2 µg/mL (≈ 5.72 µM).

Q: `CC[C@@]1(O)C(=O)OCc2c1cc1n(c2=O)Cc2cc3ccccc3nc2-1` [CAMPTOTHECIN] was tested. Which pIC50 (HCT-116 [6]) did it give?
A: Its pIC50 is 8.70.

Q: Which MIC (Aspergillus fumigatus) does the source give for `Clc1ccccc1C(c1ccccc1)(c1ccccc1)n1ccnc1` [CLOTRIMAZOLE] here?
A: Its MIC is 1 µg/mL (≈ 2.9 µM).

Q: And the MIC (Aspergillus niger)?
A: Its MIC is 16 µg/mL (≈ 46.4 µM).

Q: What about the MIC (Candida albicans) of the same compound?
A: The MIC was 4 µg/mL (≈ 11.6 µM).

Q: `COc1cccc2c1C(=O)c1c(O)c3c(c(O)c1C2=O)C[C@@](O)(C(=O)CO)C[C@@H]3O[C@H]1C[C@H](N)[C@H](O)[C@H](C)O1` [DOXORUBICIN] was tested. Which pEC50 (A-431) did it give?
A: The pEC50 was 6.15.

Q: And the pEC50 (HCT-116 [5])?
A: The pEC50 was 6.80.

Q: What about the pEC50 (HepG2) of the same compound?
A: Its pEC50 is 6.17.

Q: What about the pEC50 (U-251) of the same compound?
A: Its pEC50 is 7.15.

Q: `COc1cc([C@@H]2c3cc4c(cc3[C@@H](O[C@@H]3O[C@@H]5CO[C@@H](C)O[C@H]5[C@H](O)[C@H]3O)[C@H]3COC(=O)[C@H]23)OCO4)cc(OC)c1O` [ETOPOSIDE] was tested. Which pIC50 (HCT-116 [6]) did it give?
A: The pIC50 was 4.58.

Q: What does the source list for `Cc1cc(NS(=O)(=O)c2ccc(N)cc2)no1` [SULFAMETHOXAZOLE]?
A: MIC (Enterococcus faecium): 4 µg/mL (≈ 15.8 µM); MIC (Enterobacter cloacae): 8 µg/mL (≈ 31.6 µM); MIC (Pseudomonas aeruginosa [1]): 8 µg/mL (≈ 31.6 µM); MIC (Staphylococcus aureus [2]): 16 µg/mL (≈ 63.2 µM)
